Laboratory results: patent US7968526B2, “Antisense oligonucleotides directed to ribonucleotide reductase R2 and uses thereof in the treatment of cancer” (Lorus Therapeutics Inc., priority 2003, dated 2011)

What was measured:
[1] = test system: mouse fibrosarcoma (R3) cells; assay: Experimental metastasis of R3 cells treated ex vivo, lung nodules in C3H mice (4.1); details: for Formation of lung colonies / nodules: R3 cells treated with 0.2 μM + Lipofectin for 4 hr before i.v. injection into C3H mice
Method: • 4.1 Experimental metastasis of mouse fibrosarcoma (R3) cells treated with different antisense oligonucleotides in a syngenetic model was estimated as follows. Aliquots of R3 cell suspension were seeded into 100 mm tissue culture dishes at a density of 2×10^6 and incubated overnight at 37° C. in α-MEM medium supplemented with 10% FBS. Cells were washed once in 10 ml of PBS and treated with 0.2 μM of SEQ ID NO: 1 in the presence of cationic lipid (Lipofectin reagent, final concentration, 10 μg/ml, Gibco BRL) for 4 hr. Cells were treated with either saline alone (C) or lipofectin alone (RE) as controls. Oligonucleotide was removed by washing the cells once with PBS and the cells were trypsinized. Cells were then collected by centrifugation, and approximately 1×10^5 cells suspended in 0.2 ml of PBS were injected into the tail veins of 10 week-old C3H female mice. Estimates of the number of lung tumours were made 20 days later, after excised lungs from individual mice were stained with picric acid dye solution (75% picric acid, 20% formaldehyde, 5% glacial acetic acid). Bars represent mean number of tumour nodules in lungs obtained from 4 to 5 animals per experimental group. […] Aliquots of C8161 cell suspension were seeded into 100 mm tissue culture dishes at a density of 2×10^6 and incubated overnight at 37° C. in α-MEM medium supplemented with 10% FBS. Cells were washed once in 10 ml of PBS and treated with 0.2 μM of SEQ ID NO: 1 in the presence of cationic lipid (Lipofectin reagent, final concentration, 10 μg/ml, Gibco BRL) for 4 hr. Cells were treated with lipofectin alone (CONTROL) as a control. SEQ ID NO:1 was removed by washing the cells once with PBS and the cells were trypsinized. Cells were then collected by centrifugation, and approximately 1×10^5 cells suspended in 0.2 ml of PBS were injected into the tail veins of 6-8 week-old CD-1 athymic female nude mice. Estimates of the number of lung tumours were made 4 weeks later, after excised lungs from individual mice were stained with picric acid dye solution (75% picric acid, 20% formaldehyde, 5% glacial acetic acid). […]

[2] = Acute intravenous toxicity study in the monkey; assay type: in vivo; details: rhesus monkeys
Method: Intravenous infusion of SEQ ID NO:1 for 24 hours at doses up to 80 mg/kg/day (984 mg/m^2/day) was well-tolerated by rhesus monkeys. […] These effects indicate an apparent inhibition of the intrinsic coagulation pathway, and modest activation of the alternative complement pathway, respectively. These treatment-related changes were typical class effects of phosphorothioate oligonucleotide administration.

[3] = test system: glioblastoma-astrocytoma (U-87 MG); assay: Human glioblastoma-astrocytoma tumour growth in mice; assay type: in vivo, human cells in mice
Method: Unless noted otherwise in this Example human tumour cell lines were purchased from the American Type Culture Collections (ATCC) (Rockville, Md.). Human colon adenocarcinoma (HT-29), non-small cell lung carcinoma (NCI-H460), melanoma (A2058), breast adenocarcinoma (MDA-MB-231), pancreatic carcinoma (AsPC-1 and SU.86.86), glioblastoma-astrocytoma (U-87 MG), renal carcinoma (A498 and Caki-1), ovarian carcinoma (SK-OV-3), cervical carcinoma (HeLa S3), prostate carcinoma (PC-3), bladder carcinoma (T24), Burkitt's lymphoma (Raji) and hepatocellular carcinoma (Hep G2) were maintained, according to ATCC recommendation, in α-MEM, RPMI1640, or McCoy's 5a medium (Invitrogen Canada Inc. Burlington, Ontario) supplemented with 10-20% fetal calf serum (FCS) at 37° C. in a humidified atmosphere containing 5% CO2. Normal human cell lines, WI-38 (human lung fibroblast) and HUVEC (human umbilical vein endothelial cells) and murine R3 (fibrosarcoma) and L (Ltk^− fibroblast) cells were maintained as mentioned above. […]
FIG. 29 summarizes the results of a statistical analysis of data compiled from a number of experiments in which the effect of SEQ ID NO:1 on tumour growth was assessed in human tumour cell xenografts in mice. […]

5′-GGCTAAATCGCTCCACCAAG-3′ (all phosphorothioate, sugars by position and methylation of C not given here) [SEQ ID NO: 1, fully phosphorothioated antisense oligonucleotide that hybridizes to the coding region of R2 mRNA]
Decrease in the number of tumour metastases to lungs ([1]; Mouse Fibrosarcoma (ex vivo)): Decrease by approximately 65% in the number
Formation of lung colonies / nodules [1]: significantly reduced the formation of lung colonies
Formation of lung colonies / nodules ([1]; listed as SEQ ID NO:1): significantly reduces the extent of lung nodule formation
Clinical signs, body weight, blood pressure, heart rate, serum biochemistry, haematology ([2]; 24 hour i.v. infusion, any dose): No treatment-related clinical signs or changes in body weight, blood pressure, heart rate, serum biochemistry or haematology parameters
Deaths ([2]; 24 hour i.v. infusion, doses up to 80 mg/kg/day): no deaths during the study
Complement split product Bb ([2]; end of infusion at 20, 40, and 80 mg/kg/day): slight treatment-related increases in complement split product Bb
APTT ([2]; end of infusion at 40 and 80 mg/kg/day): Mild treatment-related changes in APTT
Tolerability ([2]; intravenous infusion for 24 hours at doses up to 80 mg/kg/day (984 mg/m^2/day)): well-tolerated
Inhibition of tumour weight [3]: ~65%
